# Laboratory results published in patent US20230105108A1, “COMPOUNDS FOR THE TREATMENT OF BACTERIAL INFECTIONS AND POTENTIATION OF ANTIBIOTICS” (GEORGIA STATE UNIVERSITY RESEARCH FOUNDATION, INC., priority 2019, published 2023).
# Entries after “also recorded” stand apart in the source; their conditions may differ. Where a name gives a salt, the structure may show the parent alone. Read-outs that look alike come from different tables or passages of the source. Marks after values point to notes of the source that are not given here.
# What was measured:
# Assay type in all cases: cell-based
# [1] = system: E. coli (ATCC 25922); assay: MIC determination, sensitization fold and FIC index on E. coli; settings: for MIC: Escherichia coli
# Procedure, shortened: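 E. coli in cation-adjusted Mueller Hinton II, 5×10^5 CFU/ml, 24 h at 37 °C shaking; rifampicin two-fold serial dilutions with or without fixed sensitizer (10 μM).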
# [2] = system: NIH3T3 cells; assay: Cytotoxicity on mammalian cells (CCK-8), NIH3T3; settings: 3T3 cell line; 24 h
# Procedure, shortened: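 Cells seeded a day ahead to ~80% confluency, exposed to varied compound concentrations for 24 h at 37° C, 5% CO2. CCK-8 added for a further 2 h and OD 450 nm read; viability expressed as percent of untreated control.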
# [3] = system: E. coli; assay: Lysozyme assay (outer membrane disruption); settings: for bacterial lysis by lysozyme in the presence of sensitizer: 50 μg/ml lysozyme, 10 min; for bacterial lysis by sensitizer itself: absence of lysozyme
# Procedure: Lysozyme assay to evaluate the disruption of Gram-negative bacteria out membrane by bacterial sensitizers. Lysozyme assay was performed based on literature reported method. E. coli was cultured in Mueller Hinton II cation-adjusted broth for overnight, centrifuged at 3000 g for 10 min, washed with HEPES buffer (pH=7.2) and then centrifuged again to obtain bacteria pallet. The pallet was then gently resuspended in HEPES buffer with 5 mM NaCN to obtain an E. coli suspension with OD600 between 0.8˜1.0. On a 96-well plate, each well was supplied with 100 μl lysozyme solution (100 μg/ml) containing 50 or 100 μg/ml bacterial sensitizers in HEPES buffer. To each well was added 100 μl E. coli suspension. The final concentration of lysozyme was 50 μg/ml. The plate was incubated at room temperature for 10 min and the OD600 was recorded. E. coli was also incubated with bacterial sensitizers in the absence of lysozyme to test if bacterial sensitizers would directly induce bacterial lysis. E. coli that was incubated with lysozyme alone or E. coli without any treatment were also used as negative control.
# [4] = system: E. coli; assay: Influence of exogenous LPS and Mg2+ on bacterial sensitizer; settings: for effect of extra LPS in culture media on sensitization: LPS 0 to 40 μM; for effect of Mg2+ on sensitization activity: exogenous Mg2+; for Sensitization fold: rifampicin
# Procedure: The MICs of bacterial sensitizer and antibiotic combination in the presence of LPS (ranging from 0 to 40 μM) or Mg^2+ (ranging from 0 to 20 mM) was determined as described above (Bacteria culture and MICs determination section).
# Various experiments were then conducted to examine the molecular target(s). […] Briefly, E. coli was treated with 5 μg/ml MD-124 (about 10 μM) with varying concentrations of LPS (from 0 to 40 μM) for 20 h. Then OD600 was measured.
# Briefly, E. coli was treated with […] MD-124 (about 10 μM) with varying concentrations of Mg^2+ (from 0 to 15 mM) for 20 h. Then OD600 was measured.
# [5] = 10 μM compound, rifampicin as the antibiotic (Table 6)
# [6] = E. coli, rifampicin, compound at 10 μM
compound,measurement,setting,value
"N=C(N)c1ccc(COc2cc(OCc3ccc(C(=N)N)cc3)cc(C(F)(F)F)c2)cc1 [MD-124, 4,4′-(((5-(trifluoromethyl)-1,3-phenylene)bis(oxy))bis(methylene)) dibenzimidamide dihydrochloride]",Sensitization fold,[1]; [5],512 fold
same,Sensitization fold (checkerboard assay),"[1]; E. coli toward rifampicin, ~10 μg/ml MD-124","over 16,000 fold"
same,effect on bacterial growth (OD600 at different time points),"[1]; E. coli, 5 μg/ml compound alone, no antibiotic, dihydrochloride",no bacterial the growth inhibition effect; also recorded: no effect on bacterial growth
same,Sensitization fold,"[1]; E. coli, rifampicin, 5 μg/ml bacterial sensitizer",512 fold
same,Sensitization fold,[1]; [6],512-fold at 10 μM
same,MIC,"[1]; ATCC25922, 24 h, E. coli, compound alone, read-out: MIC",100 µM
same,MIC,"[1]; ATCC25922, E. coli, read-out: MIC of MD-124 itself",50 µg/mL
same,Sensitization fold,"[1]; wild type E. coli towards rifampin, 3 μg/ml MD-124",16 fold
same,Sensitization fold,"[1]; wild-type E. coli towards clarithromycin, 5 μg/ml sensitizer",256 fold
same,CC50,[2],100 µM
same,bacterial lysis by lysozyme in the presence of sensitizer,[3]; 25 μg/ml sensitizer,quick bacterial lysis
same,bacterial lysis by sensitizer itself,[3],did not lead to bacterial lysis
same,MIC of rifampicin with 5 μg/ml MD-124,"[4]; LPS 0 μM, rifampicin only 10 μg/ml",0.02
same,effect of extra LPS in culture media on sensitization,[4],abolished the sensitization effect
same,MIC of rifampicin with 5 μg/ml MD-124,[4]; LPS 5 μM,2.5
same,MIC of rifampicin with 5 μg/ml MD-124,[4]; LPS 10 μM,2.5
same,MIC of rifampicin with 5 μg/ml MD-124,[4]; LPS 20 μM,5
same,MIC of rifampicin with 5 μg/ml MD-124,[4]; LPS 40 μM,5
same,MIC of rifampicin with 5 μg/ml MD-124,[4]; LPS […],1.25
same,MIC of rifampicin with 5 μg/ml MD-124,"[4]; Mg2+ 0 mM, rifampicin only 10 μg/ml",0.02
same,MIC of rifampicin with 5 μg/ml MD-124,[4]; Mg2+ 1.25 mM,0.02
same,MIC of rifampicin with 5 μg/ml MD-124,[4]; Mg2+ 5 mM,1.25
same,MIC of rifampicin with 5 μg/ml MD-124,[4]; Mg2+ 10 mM,2.5
same,MIC of rifampicin with 5 μg/ml MD-124,[4]; Mg2+ 15 mM,5
same,MIC of rifampicin with 5 μg/ml MD-124,[4]; Mg2+ […],0.04
same,effect of Mg2+ on sensitization activity,[4],dampened the bacterial sensitization activity
same,Sensitization fold,"[4]; 5 μg/ml MD-124, LPS 0 μM",512 fold
same,Sensitization fold,"[4]; 5 μg/ml MD-124, LPS 5 μM",4 fold
same,Sensitization fold,"[4]; 5 μg/ml MD-124, LPS 10 μM",4 fold
same,Sensitization fold,"[4]; 5 μg/ml MD-124, LPS 20 μM",2 fold
same,Sensitization fold,"[4]; 5 μg/ml MD-124, LPS 40 μM",2 fold
same,Sensitization fold,"[4]; 5 μg/ml MD-124, LPS […]",8 fold
same,Sensitization fold,"[4]; 5 μg/ml MD-124, Mg2+ 0 mM",512 fold
same,Sensitization fold,"[4]; 5 μg/ml MD-124, Mg2+ 5 mM",8 fold
same,Sensitization fold,"[4]; 5 μg/ml MD-124, Mg2+ 10 mM",4 fold
same,Sensitization fold,"[4]; 5 μg/ml MD-124, Mg2+ 15 mM",2 fold
same,Sensitization fold,"[4]; 5 μg/ml MD-124, Mg2+ […]",256 fold
"Cc1cc(COc2ccc(C(=N)N)cc2)cc(COc2ccc(C(=N)N)cc2)c1 [MD-100, 4,4′-(((5-methyl-1,3-phenylene)bis(methylene))bis(oxy))dibenzimidamide dihydrochloride]",Sensitization fold,[1]; [5],8 fold
same,Sensitization fold,"[1]; E. coli, rifampicin, 10 μg/ml bacterial sensitizer",32^a fold
same,Sensitization fold,[1]; [6],8-fold at 10 μM
same,Sensitization fold,"[1]; E. coli, rifampicin, compound at 25 μM",32-fold at 25 μM
same,MIC,"[1]; ATCC25922, 24 h",100 µM
same,Sensitization fold,"[1]; wild-type E. coli towards erythromycin, 10 μg/ml MD-100",32 fold
same,CC50,[2],100 µM
same,bacterial lysis by lysozyme in the presence of sensitizer,[3]; 50 μg/ml sensitizer,quick bacterial lysis
same,bacterial lysis by sensitizer itself,[3],did not lead to bacterial lysis
same,effect of extra LPS in culture media on sensitization,[4],abolished the sensitization effect
same,effect of Mg2+ on sensitization activity,[4],decreased the sensitization ability
